Measurements as given in ChEMBL document CHEMBL1136039, “Synthesis and SAR of novel imidazoquinoxaline-based Lck inhibitors: improvement of cell potency” (Bioorg Med Chem Lett, 2002).

Test system: PBL
Assay: cells
Settings: Homo sapiens, Blood
Description: 50% inhibition of T-cell proliferation induced by anti-CD3/anti-CD28 co-stimulation in human peripheral blood leukocytes (PBLs).

Compound	IC50 [nM]
COc1cc2c(cc1NCCN(C)C)nc(Nc1c(C)cccc1Cl)c1cnc(C)n12	130
COc1cc2c(cc1OCCN1CCOCC1)nc(Nc1c(C)cccc1Cl)c1cncn12	470
Cc1cccc(Cl)c1Nc1nc2ccc(NCCN3CCOCC3)cc2n2cncc12	1300
CCN1CCN(c2ccc3nc(Nc4c(C)cccc4Cl)c4cncn4c3c2)CC1	270
Cc1cccc(Cl)c1Nc1nc2cc(N3CCN(C)CC3)ccc2n2cncc12	720
Cc1cccc(Cl)c1Nc1nc2ccc(N3CCN(C)CC3)cc2n2cncc12	240
Cc1cccc(Cl)c1Nc1nc2ccc(N3CC(C)NC(C)C3)cc2n2cncc12 (configuration not stated)	340
Cc1cccc(Cl)c1Nc1nc2ccc(N3CCN(C=O)CC3)cc2n2cncc12	530
Cc1cccc(Cl)c1Nc1nc2ccc(N3CCCN(C)CC3)cc2n2cncc12	540
Brc1ccccc1Nc1nc2ccccc2n2cncc12	17000
COc1cc2c(cc1NCCN(C)C)nc(Nc1c(F)cccc1Cl)c1cncn12	240
COc1cc2c(cc1NCCN1CCOCC1)nc(Nc1c(C)cccc1Cl)c1cncn12	280
Cc1cccc(Cl)c1Nc1nc2cc(N3CC(C)NC(C)C3)ccc2n2cncc12 (configuration not stated)	570
Cc1cccc(Cl)c1Nc1nc2ccc(NCCCN3CCOCC3)cc2n2cncc12	760
COc1cc2nc(Nc3c(C)cccc3C)c3cncn3c2cc1OC	1100

Results, then the compound that gave them:

IC50 [nM]	Compound
2300	COc1cccc2nc(Nc3c(C)cccc3Cl)c3cncn3c12
2200	CCNc1ccc2nc(Nc3c(C)cccc3Cl)c3cncn3c2c1
1000	Cc1cccc(Cl)c1Nc1nc2cc(N3CCNCC3)ccc2n2cncc12
190	COc1cc2c(cc1NCCN(C)C)nc(Nc1c(C)cccc1Cl)c1cncn12
2600	CCN(CC)c1ccc2nc(Nc3c(C)cccc3Cl)c3cncn3c2c1
> 9000	Cc1cccc(Cl)c1Nc1nc2cc(O)c(O)cc2n2cncc12
480	Cc1cccc(Cl)c1Nc1nc2cc(NCCCN(C)C)ccc2n2cncc12
380	Cc1cccc(Cl)c1Nc1nc2ccc(N3CCNCC3)cc2n2cncc12
880	Cc1cccc(Cl)c1Nc1nc2ccc(NCCN(C)C)cc2n2cncc12
1400	CC(=O)Nc1ccc2nc(Nc3c(C)cccc3Cl)c3cncn3c2c1
520	Cc1cccc(Cl)c1Nc1nc2cc(NCCN(C)C)ccc2n2cncc12
2600	COc1ccc2c(c1)nc(Nc1c(C)cccc1Cl)c1cncn12
1600	Cc1cccc(Cl)c1Nc1nc2ccc(N)cc2n2cncc12
2000	Cc1cccc(Cl)c1Nc1nc2cc3c(cc2n2cncc12)OCO3
780	Cc1cccc(Cl)c1Nc1nc2ccc(N3CCOCC3)cc2n2cncc12
760	COc1cc2nc(Nc3c(C)cccc3Cl)c3cncn3c2cc1N1CC(C)NC(C)C1 (configuration not stated)
2000	Cc1cccc(Cl)c1Nc1nc2ccc(N(C)C)cc2n2cncc12
2200	Cc1cccc(Cl)c1Nc1nc2cc3c(cc2n2cncc12)OCCO3
1000	Cc1cccc(Cl)c1Nc1nc2cc(N3CCOCC3)ccc2n2cncc12
1700	CCN(CC)c1ccc2c(c1)nc(Nc1c(C)cccc1Cl)c1cncn12
670	COc1cc2nc(Nc3c(C)cccc3Cl)c3cncn3c2cc1OC
1400	COc1ccc2nc(Nc3c(C)cccc3Cl)c3cncn3c2c1
